Data from paper PMC11259170, “Small-molecule probe for IBD risk variant GPR65 I231L alters cytokine signaling networks through positive allosteric modulation” (Science Advances, 2024).
Read-outs that look alike come from different tables or passages of the source.

Tests used:
hGPR65-SmBiT = biological target: T1, hGPR65-SmBiT (Homo sapiens, UniProt Q8IYL9); assay: Nano-BiT target engagement, LgBiT-mGs recruitment to hGPR65-SmBiT in Expi293F cells; format: cell-based; conditions: isoproterenol treatment
T1 construct: expressed in transfected cells; host or cells: Expi293F (Gibco), transient transfection
Protocol: Target engagement was measured in Expi293F (Gibco, 100044202) cells using the Nano-Glo Live Cell Assay System (Promega, N2011). Nano-BiT plasmids were cloned from GPR65-, GPR4-, and GPR68-Tango plasmids. GPR65-Tango (Addgene plasmid # 66370; http://n2t.net/addgene:66370; RRID:Addgene_66370), GPR4-Tango (Addgene plasmid # 66358; http://n2t.net/addgene:66358; RRID:Addgene_66358), and GPR68-Tango (Addgene plasmid # 66371; http://n2t.net/addgene:66371; RRID:Addgene_66371) were gifts from Bryan Roth. Expi293F cells were transfected 1 day before kinetics with 500 ng of each plasmid using ExpiFectamine 293 Transfection Kit (Gibco, A14525). After 24 hours, cells were collected, washed, and resuspended in room temperature 0.1% PBS-BSA, adjusted to pH 7.4 using 1 M NaOH. Cells were transferred to white opaque 96-well microplates (100 μl per well, PerkinElmer, 6005290), followed by addition of the Nano-Glo Live Cell Reagent (25 μl per well). Baseline luminescence was measured for 10 cycles (1 cycle = 90 s) before adding compounds. All luminescence measurements were made on BMG Labtech PHERAstar FSX. Data analysis was performed using GraphPad Prism.

[1] = test system: GPR65 KO HeLa cells + pLX empty vector; assay: cAMP detection, GPR65 KO HeLa + empty pLX vector (null control); format: cell-based, human; conditions: HeLa GPR65 KO + pLX, pH 7.1, 30 min, normalized to DMSO and 100 μM forskolin
Protocol: (§1) The Lance Ultra cAMP Kit (PerkinElmer, TRF0264) was used for cAMP detection, and included the following reagents: ULight anti-cAMP antibody, Eu-cAMP tracer, 7.5% BSA Stabilizer solution, and cAMP detection buffer. Stimulation buffer was prepared as described by the kit manufacturer as follows: Hanks buffered saline solution (HBSS, Life Technologies, 14025-126) containing 0.5 mM IBMX (3-isobutyl-1-methylxanthine, Sigma-Aldrich, I7018) and buffered with 1 M Hepes (15630-080). Stimulation buffer was then adjusted to pH 7.1 using 12 N HCl. HeLa cells were lifted using Versene and then suspended at 2.5 × 10^5 cells/ml in stimulation buffer. Cells were then plated at 20 μl per well (5000 cells per well) in white, opaque OptiPlate 384-well MicroPlates (PerkinElmer, 6007299) using a Thermo Fisher Scientific Combi liquid dispenser. Compounds, stored at 5 mM in DMSO for the primary screen, or in a range of concentrations from 39 μM to 20 mM for dose curves, were transferred by the CyBio CyBi-Well Vario pin transfer tool with 100-nl pins (V&P FP1NS50H, 50-nl slot, 0.457-mm diameter, hydrophobic coated), into each assay well, 100 nl per well for a final assay concentration of 25 μM for the primary screen, or 195 nM to 100 μM for dose curves. Assay plates were then incubated at RT for 30 min. Eu-cAMP tracer was diluted 1:33 into detection buffer and the final solution then distributed into assay wells, 5 μl per well. ULight anti-cAMP antibody was diluted 1:100 into detection buffer, then distributed into assay wells, also 5 μl per well. Assay plates were then incubated at RT in the dark for 1 hour. Eu-cAMP tracer and Förster resonance energy transfer (FRET) emissions were then read using a PerkinElmer EnVision Multimode plate reader (ENVISION21040010), exciting each well at 320 nm [UV2 (TRF) 320 filter] and reading emissions at 615 nm (Europium 615 filter) and 665 nm (APC665 filter). Data analysis was performed using Genedata Screener and GraphPad Prism.
(§2) HeLa KO cell lines were generated using the px330 plasmid CRISPR system as previously described ([18]). Briefly, HeLa cells were transfected with a Cas9 vector containing a gene-specific single-guide RNA to target the GPR65 coding exon. Forty-eight to 72 hours after transfection, single clones were obtained through limiting dilution and then sequenced to validate the KO. Reconstituted cell lines were produced by transducing KO cells with empty lentivirus or lentivirus containing hGPR65 or mGPR65. After 48 hours, cells were treated with puromycin (3 μg/ml; InvivoGen, ant-pr-1) and resistant cells were used in experiments.

hGPR65 [2] = biological target: T2, hGPR65 (Homo sapiens, UniProt Q8IYL9); assay: cAMP detection (Lance Ultra), GPR65 KO HeLa reconstituted with hGPR65; 21K screen dose confirmation; format: cell-based; conditions: HeLa GPR65 KO + hGPR65, pH 7.1, 30 min, normalized to DMSO and 100 μM forskolin; read-out: WT EC50
T2 construct: expressed in transfected cells; host or cells: HeLa (ATCC CCL-2), lentiviral transduction, pLX317
Protocol: as §1, §2

[3] = Solubility in phosphate buffer; format: physicochemical; conditions: read-out: Solubility
Lipophilicity (logD) = format: physicochemical; conditions: pH 7.4; pH7.4; read-out: LogD (pH7.4)
mGPR65 = biological target: T3, mGPR65 (Mus musculus, UniProt Q61038); assay: cAMP detection in HeLa expression cell line, mGPR65; format: cell-based; conditions: for Emax: HeLa, relative to 100uM forskolin (100%) and DMSO (0%), read-out: mGPR Max Activity %; for EC50: mGPR EC50 (uM)
T3 construct: expressed in transfected cells; host or cells: HeLa (ATCC CCL-2), lentiviral transduction, pLX317
In short: (§3)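 TR-FRET cAMP read-out (Lance Ultra; ex 337 nm, em 620 and 665 nm) after 1 h detection in the dark, following a 30 min RT stimulation of 1500 cells per well in pH 7.2 stimulation buffer with compound supplied as 10 mM DMSO stock. Cells: lentivirally transduced HeLa lines carrying V5-tagged GPCR or GFP, kept under 3 μg/ml puromycin.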

hGPR65 [4] = biological target: T2, hGPR65; assay: cAMP detection in HeLa expression cell line, hGPR65; format: cell-based; conditions: for Emax: HeLa, relative to 100uM forskolin (100%) and DMSO (0%), read-out: hGPR Max Activity %
In short: as §3

[5] = 2nd mGPR column pair, NA = no activity

T2 sequence (Q8IYL9 whole entry): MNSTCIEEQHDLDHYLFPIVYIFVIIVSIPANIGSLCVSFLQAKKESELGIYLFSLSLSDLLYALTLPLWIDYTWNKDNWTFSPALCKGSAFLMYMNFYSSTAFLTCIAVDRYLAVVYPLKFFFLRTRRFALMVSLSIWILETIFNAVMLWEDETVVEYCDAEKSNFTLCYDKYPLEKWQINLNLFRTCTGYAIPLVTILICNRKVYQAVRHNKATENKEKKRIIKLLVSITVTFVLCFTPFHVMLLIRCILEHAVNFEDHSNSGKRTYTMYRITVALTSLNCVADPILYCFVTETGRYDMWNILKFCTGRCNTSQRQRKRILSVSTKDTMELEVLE
T3 sequence (Q61038 whole entry): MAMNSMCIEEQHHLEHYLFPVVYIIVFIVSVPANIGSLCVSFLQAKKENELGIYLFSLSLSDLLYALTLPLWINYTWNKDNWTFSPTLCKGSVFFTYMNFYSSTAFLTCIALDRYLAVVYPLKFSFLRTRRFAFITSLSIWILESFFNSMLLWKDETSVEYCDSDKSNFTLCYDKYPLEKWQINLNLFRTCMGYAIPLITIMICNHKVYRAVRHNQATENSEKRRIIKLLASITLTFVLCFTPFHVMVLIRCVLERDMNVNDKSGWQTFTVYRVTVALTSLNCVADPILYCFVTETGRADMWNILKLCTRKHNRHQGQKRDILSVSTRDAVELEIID
T1 sequence (Q8IYL9 whole entry): as the sequence (Q8IYL9 whole entry) above

Structure (SMILES) | EC50 [1] | EC50 (hGPR65 [2]) | other results
CC(C)NCC(O)c1ccc(O)c(O)c1 (stereo not drawn) [isoproterenol, reference compound] | – | – | luminescence in hGPR65-SmBiT/LgBiT-mGs cells (hGPR65-SmBiT): did not elicit a change in luminescence
N#Cc1cnc(SCc2cc(=O)[nH]c3ccccc23)nc1N [BRD-K39252032-001-02-5] | 67.6 µM | > 100 µM | –
O=C(c1ccc2nc[nH]c2c1)N1CCC(CCOc2ccccc2)(C(=O)O)CC1 [BRD-K25972060-001-03-7] | 4.9 µM | 4.6 µM | –
CC(=O)N1CCCC(CCCc2ccncc2)(C(=O)O)C1 (stereo not drawn) [BRD-A44875014-001-02-0] | 14.7 µM | 13.2 µM | –
O=C(Nc1cccc2nsnc12)c1sc2ccccc2c1Cl [BRD-K76966415-001-02-1] | < 30 µM | < 30 µM | –
O=C(CN1CCC(c2ccncc2)CC1)NCc1cccs1 [BRD-K63268990-001-02-0] | > 100 µM | > 100 µM | –
O=C(c1cc2c([nH]c1=O)CCC2)N1CCN(c2ccnc3cc(Cl)ccc23)CC1 [BRD-K91175373-001-02-0] | 16.9 µM | 20.1 µM | –
CCN1CCCc2cc(-c3cncn3C(C)CN3CCOCC3)ccc21 (stereo not drawn) [BRD-A40378740-001-02-0] | > 100 µM | > 100 µM | –
O=C(CN1CCC(c2ccncc2)CC1)N1CCOCC1 [BRD-K33295678-001-02-9] | > 100 µM | > 100 µM | –
O=C(O)CCCc1nc(-c2cccnc2)no1 [BRD-K41365409-001-02-6] | 35.7 µM | 41.3 µM | –
CCCCC(CC)C(=O)Oc1ccc2c(c1)oc(=O)c1ccccc12 (stereo not drawn) [BRD-A19872532-001-02-1] | > 100 µM | > 100 µM | –
Nc1cccnc1Sc1nc2cccnc2s1 [BRD-K10062067-001-02-9] | > 100 µM | > 100 µM | –
Cc1ccc(NC(=O)c2cnn3c(O)cc(-c4ccc(COC(C)C)cc4)nc23)cc1F [BRD5078, O=C(NC1=CC=C(C)C(F)=C1)C2=C3N(N=C2)C(O)=CC(C4=CC=C(COC(C)C)C=C4)=N3] | – | – | solubility [3]: < 1.56 µM; logD (Lipophilicity (logD)): > 4.96; activity for mGPR65 among prioritized molecules (mGPR65; 1.56 μM, pH 7.2): highest activity; Emax (mGPR65; [5]): 51.5%; Emax (mGPR65; NA = no activity): 53.6%; EC50 (mGPR65; [5]): 0.944 µM; EC50 (mGPR65; first pair of columns, pH 7.2, 30 min): 0.477 µM; EC50 (mGPR65; second pair of columns, pH 7.2, 30 min): 0.29 µM; EC50 (mGPR65; NA = no activity): 0.332 µM; cAMP activity, mGPR65 (mGPR65; pH 7.2): at least 40%; activity for hGPR65 (hGPR65 [4]): strong activity for hGPR65; activity for hGPR65 among prioritized molecules (hGPR65 [4]; 1.56 μM, pH 7.2): highest activity; Emax (hGPR65 [4]; 1st hGPR column pair, NA = no activity): 80.5%; Emax (hGPR65 [4]; 2nd hGPR column pair, NA = no activity): 73.3%; EC50 (hGPR65 [4]; hGPR EC50 (uM), NA = no activity): 0.229 µM; EC50 (hGPR65 [4]; hGPR EC50 (uM), pH 7.2, 30 min): 0.347 µM; EC50 (hGPR65 [4]; hGPR EC50, NA = no activity): 0.351 µM; EC50 (hGPR65 [4]; hGPR EC50, pH 7.2, 30 min): 0.264 µM; cAMP activity, hGPR65 (hGPR65 [4]; pH 7.2): at least 40%
CC(NC(=O)c1ccc2ncccc2c1)c1cc(=O)[nH]c(N2CCN(C)CC2)n1 (stereo not drawn) [BRD-A49179268-001-02-5] | 67.5 µM | 83.4 µM | –
COc1ccc(S(=O)(=O)N2C[C@@H](N)[C@H](c3cn(C)c4cnccc34)C2)cc1 [BRD-K00063734-001-02-2] | 63.2 µM | 73.6 µM | –
Cn1ccc2c(-c3ccc(C(=O)N4CCCC4)cn3)ccnc21 [BRD-K29607656-001-02-7] | > 100 µM | > 100 µM | –
O=C1CC(N2CCN(c3ncccn3)CC2)C(=O)N1c1ccccc1 (stereo not drawn) [BRD-A87117975-001-02-2] | 54.8 µM | 71.1 µM | –

Structure (SMILES) | EC50 [1] | EC50 (hGPR65 [2]) | other results
Cc1cc(C)n(CC(O)CN(Cc2ccco2)Cc2cccc3ncccc23)n1 (stereo not drawn) [BRD-A63170499-001-02-6] | > 100 µM | > 100 µM | –
O=c1c(-c2ccccc2)nnc2sc(-c3ccc4c(c3)OCCO4)nn12 [BRD-K26812102-001-02-6] | > 100 µM | > 100 µM | –
O=C(c1ccco1)N1CCN(c2ccnc3cc(Cl)ccc23)CC1 [BRD-K27679143-001-08-6] | 15.6 µM | 18.3 µM | –
O=S1(=O)CCC(Cn2cc(-c3ccnc4ccccc34)nn2)C1 (stereo not drawn) [BRD-A69528226-001-02-9] | 17 µM | 19.9 µM | –
COC(=O)Nc1nc2ccc(-c3n[nH]c(=O)c4ccccc34)cc2[nH]1 [BRD-K25806464-001-09-6] | < 10 µM | < 10 µM | –
CC(Sc1nc2ncnc(N)c2[nH]1)C(=O)O (stereo not drawn) [BRD-A18106607-001-02-5] | 6.4 µM | 6 µM | –
O=C(O)c1nccnc1C(=O)N1CCCN(c2c(Cl)cncc2Cl)CC1 [BRD-K53955368-001-02-8] | > 100 µM | > 100 µM | –
COc1ccc(NC(=O)CSc2nc3ccc(C)cc3cc2C#N)cc1 [BRD-K45250069-001-02-7] | > 100 µM | > 100 µM | –
O=C(O)C1CCN(c2ncnc3ccccc23)CC1 [BRD-K45393828-001-02-7] | 39.5 µM | 54.4 µM | –
COc1cc(Br)c(-c2cc3ccccc3oc2=O)cc1OC [BRD-K22294093-001-02-2] | < 10 µM | < 10 µM | –
Cc1cc2c(cc1-c1cncn1CCN(C)C1CCCC1)n(C)c(=O)n2C [BRD-K91081402-001-02-5] | > 100 µM | > 100 µM | –
CS(=O)(=O)N1CCN(c2ccnc3cc(Cl)ccc23)CC1 [BRD-K06900104-001-09-6] | 23 µM | 27.5 µM | –
CCN1C[C@@H](COC)[C@]2(CCN(C(=O)N3CCCC3)C2)C1 [BRD-K23021624-001-01-8] | > 100 µM | > 100 µM | –
O=C(O)CCSCCc1ccncc1 [BRD-K06534048-001-02-7] | 29.3 µM | 37.8 µM | –
CN1CCN(c2ccnc3ccccc23)CC1C(=O)O (stereo not drawn) [BRD-A45312230-001-02-1] | 1.3 µM | 1.2 µM | –
Cn1cc(C(=O)c2ccc(F)cc2)c2ccnc(Cl)c21 [BRD-K96864761-001-02-4] | 44.5 µM | 48.1 µM | –
Cn1ccc2c(-c3cccc(=O)[nH]3)ccnc21 [BRD-K33217544-001-03-3] | 89.8 µM | 91.8 µM | –
